Assay: NMR reduction studies with GSH or ascorbic acid
Format: physicochemical
Details: up to 10 equiv of reducing agent, 48 h, 37 °C, PBS/D2O, 1H NMR
Description: Thus, all compounds were >95% pure by NMR and HPLC analyses. NMR reduction studies were also undertaken where excess equivalents of reducing agents GSH or ascorbic acid were added to the sample before undertaking multiple NMR measurements over a 48 h period at 37 °C. These reducing agents were chosen to mimic the reducing capacity of the […] environment of the blood and tissue. […] However, once inside the cell, reactions with intracellular components might be induced, rendering the prodrug biodegradable. […] Therefore, the complex is unlikely to be reduced in the bloodstream. Monitoring the Pt(IV) peak, falling as the Pt(II) peak rises, would be ideal for further proof of the stability of these complexes, but the Pt(IV) resonance falls outside the detectable range of our instrument.
One equivalent of the complex was dissolved in 500 μL of PBS using D2O for a ^1H NMR experiment performed on a Bruker AVANCE 400 MHz NMR spectrometer, with 50 dummy scans (approx. 5 min) to allow the sample to reach 37 °C before 128 scans were taken. The sample was removed, and the reducing agent was quickly added. Then the NMR measurement was taken again (50 dummy scans followed by 128 scans). The NMR was subsequently set up to measure one 128-scan experiment after another for 4 h, at which point the sample was removed, stored, and scanned again after 24 and 48 h. […]

**Q.** Which “stability towards reduction by GSH or ascorbic acid” value does the source give for `Cc1c(C)c2c3c4c1=CC=C[N]4[Pt][N]3C=CC=2.NCCNC(=O)Cc1ccccc1Nc1c(Cl)cccc1Cl.NCCNC(=O)Cc1ccccc1Nc1c(Cl)cccc1Cl.N[C@H]1CCCC[C@@H]1N` [complex 4, Pt^IV56MeSS(DCF)2] here?
**A.** the compound had not been reduced

— paper PMC10291556 (Journal of Medicinal Chemistry, 2023)
